Data set [1] in a line: Dissociation constant, pKa of compound. Type of data set: physicochemical.
Data set [2] concerns the target 5-hydroxytryptamine receptor 2B (Homo sapiens, UniProt P41595). As to the kind of experiment: Agonist activity at 5HT2B (unknown origin). Type of data set: toxicity.
The nature of another data set: cells. To be noted: Homo sapiens, 92-1, 72 h.
The target in data set [3] is Glycogen synthase kinase-3 beta (Homo sapiens, UniProt P49841). Put plainly: Inhibition of GSK3beta (unknown origin). The class given is toxicity.
In data set [4] the target is T1, Receptor-type tyrosine-protein kinase FLT3 (Homo sapiens, UniProt P36888).
T1 sequence (P36888 whole entry): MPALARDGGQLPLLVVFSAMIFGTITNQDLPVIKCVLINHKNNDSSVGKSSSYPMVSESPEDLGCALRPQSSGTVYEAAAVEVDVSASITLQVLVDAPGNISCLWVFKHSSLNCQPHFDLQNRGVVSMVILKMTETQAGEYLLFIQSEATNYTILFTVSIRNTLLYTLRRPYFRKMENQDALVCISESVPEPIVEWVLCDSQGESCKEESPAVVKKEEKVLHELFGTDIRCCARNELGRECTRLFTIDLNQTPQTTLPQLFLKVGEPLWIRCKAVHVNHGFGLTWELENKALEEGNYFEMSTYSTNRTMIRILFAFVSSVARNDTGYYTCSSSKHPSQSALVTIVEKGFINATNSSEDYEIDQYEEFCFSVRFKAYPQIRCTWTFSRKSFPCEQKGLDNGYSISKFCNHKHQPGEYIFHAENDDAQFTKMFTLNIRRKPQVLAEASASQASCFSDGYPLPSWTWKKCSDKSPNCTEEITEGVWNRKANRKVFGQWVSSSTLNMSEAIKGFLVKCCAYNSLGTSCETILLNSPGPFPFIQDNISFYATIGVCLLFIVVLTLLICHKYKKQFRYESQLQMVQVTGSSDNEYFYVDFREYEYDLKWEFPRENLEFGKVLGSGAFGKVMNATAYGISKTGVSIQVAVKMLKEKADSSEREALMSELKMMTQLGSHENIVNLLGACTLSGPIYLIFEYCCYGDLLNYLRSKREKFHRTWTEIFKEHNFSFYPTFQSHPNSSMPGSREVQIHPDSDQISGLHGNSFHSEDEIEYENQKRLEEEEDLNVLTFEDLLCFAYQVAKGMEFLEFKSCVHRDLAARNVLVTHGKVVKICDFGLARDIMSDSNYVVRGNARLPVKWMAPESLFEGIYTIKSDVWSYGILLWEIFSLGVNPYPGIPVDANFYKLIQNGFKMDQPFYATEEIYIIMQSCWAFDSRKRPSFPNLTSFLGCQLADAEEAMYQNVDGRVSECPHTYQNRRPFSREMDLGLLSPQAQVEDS
Put plainly: Inhibition of FLT3 (unknown origin). The class given is toxicity.

For data set [5], the target named is T2, Protein kinase C theta type (Homo sapiens, UniProt Q04759). Put plainly: Inhibition of PKCtheta (unknown origin) incubated for 15 mins in presence of 33P-ATP by Topcount scintillation counting method.
Data set [6] has as its target Protein kinase C alpha type (Homo sapiens, UniProt P17252). Put plainly: Inhibition of PKCalpha (unknown origin) incubated for 15 mins in presence of 33P-ATP by Topcount scintillation counting method.
Data set [7] has as its target T3, Protein kinase C epsilon type (Homo sapiens, UniProt Q02156).
T3 sequence (Q02156 whole entry): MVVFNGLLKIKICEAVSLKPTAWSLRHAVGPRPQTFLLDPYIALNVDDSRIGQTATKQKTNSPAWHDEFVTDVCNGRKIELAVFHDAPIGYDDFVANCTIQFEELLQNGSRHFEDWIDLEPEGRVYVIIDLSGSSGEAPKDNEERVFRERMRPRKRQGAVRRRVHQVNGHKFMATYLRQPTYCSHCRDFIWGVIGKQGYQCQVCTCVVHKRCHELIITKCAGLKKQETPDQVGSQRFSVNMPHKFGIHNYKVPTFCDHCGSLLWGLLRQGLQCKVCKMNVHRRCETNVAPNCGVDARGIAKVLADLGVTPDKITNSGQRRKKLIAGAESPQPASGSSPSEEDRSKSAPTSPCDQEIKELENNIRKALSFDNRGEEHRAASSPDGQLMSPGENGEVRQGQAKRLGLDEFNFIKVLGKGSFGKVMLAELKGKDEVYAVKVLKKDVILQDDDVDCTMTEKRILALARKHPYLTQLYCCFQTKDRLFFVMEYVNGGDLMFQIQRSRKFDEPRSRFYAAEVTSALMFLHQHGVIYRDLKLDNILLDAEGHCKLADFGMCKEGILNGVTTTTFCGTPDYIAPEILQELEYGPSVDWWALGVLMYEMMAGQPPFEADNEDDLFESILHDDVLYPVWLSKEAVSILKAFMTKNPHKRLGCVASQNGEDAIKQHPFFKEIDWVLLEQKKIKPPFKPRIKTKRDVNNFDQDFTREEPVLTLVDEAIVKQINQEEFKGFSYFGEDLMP
Put plainly: Inhibition of PKCepsilon (unknown origin).

In data set [8] the target is T2, Protein kinase C theta type. Put plainly: Inhibition of PKCtheta (unknown origin).
The test system of data set [9] is 92-1. As to the kind of experiment: Antitumor activity against human 92-1 cells xenografted in mouse assessed as tumor suppression at 120 mg/kg, bid. The class given is functional, organism-based. A general note: A xenograft is tissue or cells of one species grown in another, often human tumour cells in immunodeficient mice.
The subject of a further data set is SK-MEL-28. As to the kind of experiment: cells. To be noted: Homo sapiens.
The target of data set [10] is Protein kinase C delta type (Homo sapiens, UniProt Q05655). As to the kind of experiment: Inhibition of PKCdelta (unknown origin).
Data set [11] concerns the target Protein kinase C eta type (Homo sapiens, UniProt P24723). As to the kind of experiment: Inhibition of PKCeta (unknown origin).
Data set [12] concerns the target Protein kinase C gamma type (Homo sapiens, UniProt P05129). Put plainly: Inhibition of PKCgamma (unknown origin).
Data set [13] in a line: Toxicity in mouse xenografted with human 92-1 cells assessed as abdominal distention at 100 mg/kg, qd after 1 week. The class given is organism-based. Particulars: in vivo, 168 h, time 1 weeks.
A short description of data set [14]: Toxicity in mouse xenografted with human 92-1 cells assessed as enlarged GI track at 100 mg/kg, qd measured upto 15 days. Type of data set: organism-based. Particulars: in vivo, 360 h, time < 15 day.
Data set [15] is described as follows: Toxicity in mouse xenografted with human 92-1 cells assessed as body weight loss at 100 mg/kg, qd measured upto 15 days. The class given is organism-based. Particulars: in vivo, 360 h, time < 15 day.
Data set [16] has as its system 92-1. Put plainly: Antitumor activity against human 92-1 cells xenografted in mouse assessed as tumor suppression at 100 mg/kg, qd. Type of data set: functional, organism-based.

The source made the active and inactive calls. No cut-off for these calls is given here.

5-hydroxytryptamine receptor 2B, sequence (P41595 whole entry): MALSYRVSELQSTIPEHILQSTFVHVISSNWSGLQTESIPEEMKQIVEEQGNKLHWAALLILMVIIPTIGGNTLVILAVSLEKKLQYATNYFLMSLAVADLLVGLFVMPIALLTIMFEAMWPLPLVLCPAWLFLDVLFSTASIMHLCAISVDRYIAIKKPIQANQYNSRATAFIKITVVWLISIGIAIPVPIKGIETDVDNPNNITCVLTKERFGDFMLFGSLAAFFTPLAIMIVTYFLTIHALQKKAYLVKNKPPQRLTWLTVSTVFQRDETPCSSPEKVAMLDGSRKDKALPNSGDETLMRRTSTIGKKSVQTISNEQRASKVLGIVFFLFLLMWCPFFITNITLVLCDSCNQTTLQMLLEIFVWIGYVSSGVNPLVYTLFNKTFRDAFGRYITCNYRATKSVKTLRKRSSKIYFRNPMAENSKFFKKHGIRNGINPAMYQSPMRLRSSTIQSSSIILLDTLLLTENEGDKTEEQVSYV
Glycogen synthase kinase-3 beta, sequence (P49841 whole entry): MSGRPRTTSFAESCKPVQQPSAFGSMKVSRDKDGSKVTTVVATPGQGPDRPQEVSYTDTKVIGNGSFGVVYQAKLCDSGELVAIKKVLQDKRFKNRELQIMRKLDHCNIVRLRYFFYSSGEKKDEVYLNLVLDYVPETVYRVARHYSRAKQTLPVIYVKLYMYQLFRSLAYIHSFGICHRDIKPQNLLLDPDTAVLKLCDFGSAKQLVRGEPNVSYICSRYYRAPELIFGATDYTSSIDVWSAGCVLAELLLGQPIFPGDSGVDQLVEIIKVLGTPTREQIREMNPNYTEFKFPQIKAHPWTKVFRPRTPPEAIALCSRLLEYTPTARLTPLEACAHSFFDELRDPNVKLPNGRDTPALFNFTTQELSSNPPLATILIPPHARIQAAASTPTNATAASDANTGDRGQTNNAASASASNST
T2 sequence (Q04759 whole entry): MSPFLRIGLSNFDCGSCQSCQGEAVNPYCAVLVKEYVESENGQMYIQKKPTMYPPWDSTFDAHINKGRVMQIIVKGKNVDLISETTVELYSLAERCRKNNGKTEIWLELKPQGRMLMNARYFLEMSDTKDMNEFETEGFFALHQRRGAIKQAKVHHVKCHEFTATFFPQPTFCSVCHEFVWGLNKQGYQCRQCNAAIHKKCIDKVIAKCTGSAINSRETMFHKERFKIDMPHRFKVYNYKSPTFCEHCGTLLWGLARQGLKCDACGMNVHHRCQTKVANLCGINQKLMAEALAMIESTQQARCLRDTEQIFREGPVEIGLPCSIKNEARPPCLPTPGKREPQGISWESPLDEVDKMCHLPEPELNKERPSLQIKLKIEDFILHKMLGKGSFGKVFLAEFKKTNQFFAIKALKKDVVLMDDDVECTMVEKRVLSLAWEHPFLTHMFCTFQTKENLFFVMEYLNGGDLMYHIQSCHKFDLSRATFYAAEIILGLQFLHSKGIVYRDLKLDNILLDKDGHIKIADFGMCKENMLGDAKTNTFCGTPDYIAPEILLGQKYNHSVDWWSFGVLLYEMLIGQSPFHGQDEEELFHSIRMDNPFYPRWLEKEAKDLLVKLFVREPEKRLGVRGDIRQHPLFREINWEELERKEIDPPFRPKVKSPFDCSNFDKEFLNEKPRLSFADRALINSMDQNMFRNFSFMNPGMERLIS
Protein kinase C delta type, sequence (Q05655 whole entry): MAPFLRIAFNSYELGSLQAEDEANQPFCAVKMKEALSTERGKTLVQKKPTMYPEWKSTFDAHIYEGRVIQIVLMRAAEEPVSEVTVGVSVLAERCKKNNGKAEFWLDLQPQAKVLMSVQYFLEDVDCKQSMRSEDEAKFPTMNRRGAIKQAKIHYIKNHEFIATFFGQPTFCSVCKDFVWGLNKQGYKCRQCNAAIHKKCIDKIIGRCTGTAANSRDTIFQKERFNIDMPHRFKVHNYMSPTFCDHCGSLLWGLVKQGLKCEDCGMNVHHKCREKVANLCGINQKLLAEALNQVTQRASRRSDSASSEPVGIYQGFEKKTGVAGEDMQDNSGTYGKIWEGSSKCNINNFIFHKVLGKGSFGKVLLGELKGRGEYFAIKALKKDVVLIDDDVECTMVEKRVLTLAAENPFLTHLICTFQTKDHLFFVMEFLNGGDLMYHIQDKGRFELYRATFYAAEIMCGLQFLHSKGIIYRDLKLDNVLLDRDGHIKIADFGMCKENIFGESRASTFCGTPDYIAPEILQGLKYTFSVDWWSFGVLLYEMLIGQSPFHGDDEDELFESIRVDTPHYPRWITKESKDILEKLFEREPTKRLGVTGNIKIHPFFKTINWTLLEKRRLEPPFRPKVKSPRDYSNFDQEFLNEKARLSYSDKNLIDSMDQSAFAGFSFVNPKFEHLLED
Protein kinase C eta type, sequence (P24723 whole entry): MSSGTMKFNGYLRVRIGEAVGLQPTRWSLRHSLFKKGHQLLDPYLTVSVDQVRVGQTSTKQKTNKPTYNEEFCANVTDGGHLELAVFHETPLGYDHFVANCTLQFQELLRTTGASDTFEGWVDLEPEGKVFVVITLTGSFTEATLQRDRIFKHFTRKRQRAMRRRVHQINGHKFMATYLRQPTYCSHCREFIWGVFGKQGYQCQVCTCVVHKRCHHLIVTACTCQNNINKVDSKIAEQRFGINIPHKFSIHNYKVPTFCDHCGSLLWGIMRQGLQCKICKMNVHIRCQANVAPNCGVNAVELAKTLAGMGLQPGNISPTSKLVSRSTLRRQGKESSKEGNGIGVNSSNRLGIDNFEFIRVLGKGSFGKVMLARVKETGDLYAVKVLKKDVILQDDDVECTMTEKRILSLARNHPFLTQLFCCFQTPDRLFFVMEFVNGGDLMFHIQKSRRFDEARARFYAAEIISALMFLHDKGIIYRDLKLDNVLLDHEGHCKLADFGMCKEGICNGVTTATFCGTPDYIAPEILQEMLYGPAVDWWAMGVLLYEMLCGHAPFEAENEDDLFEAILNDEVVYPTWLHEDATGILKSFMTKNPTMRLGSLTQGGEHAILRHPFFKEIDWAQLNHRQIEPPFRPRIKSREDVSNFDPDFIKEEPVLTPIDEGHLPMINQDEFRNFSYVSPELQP

A word on the pKa: it is the negative logarithm of the acid dissociation constant. Read a high pKa as a group that holds its proton tightly. The EC50 is the concentration giving half of the maximal effect. Read a low EC50 as greater potency. For the compound `COC1CN(c2cccnc2NC(=O)c2nc(-c3ncccc3OC(F)(F)F)cnc2N)CCC1N` (trans isomer), the pKa in data set [1] worked out at 8. For the same compound, the concentration giving a half-maximal response (EC50) was > 30000 nM in data set [2] and 2800 nM in “cells”.

As usually defined, the IC50 is the concentration needed to halve the response being measured. Take `Nc1ncc(-c2cccc3[nH]ccc23)nc1C(=O)Nc1ncccc1N1CCC(N)CC1`: the IC50 in data set [3] is 19 nM; in data set [4] it was 33 nM. In addition, the figures for the EC50 (in data set [2]; in the data set “cells”) were 780 nM and 11 nM, respectively.

Turning to `Nc1ncc(-c2nc(N3CCOCC3)cc3ccccc23)nc1C(=O)Nc1ncccc1N1CCC(N)CC1`, the EC50 is 160 nM in data set [2] and 22 nM in “cells”.

As for `CN(C)c1ccc(C(F)(F)F)c(-c2cnc(N)c(C(=O)Nc3ncccc3N3CCC(N)CC3)n2)n1`, the IC50 was determined as 2700 nM in [3] and 95 nM in data set [4]. Moreover, the EC50 in the data set “cells” was found to be 66 nM.

In [1], `Nc1ncc(-c2ncccc2OC(F)(F)F)nc1C(=O)Nc1ncccc1N1CCC(N)C(F)(F)C1` (stereo not drawn) gave a pKa of 6. In addition, the IC50 in data set [5] was determined as 10 nM; in data set [6], 11 nM. In addition, the concentration giving a half-maximal response (EC50) turned out to be 2000 nM in data set [2] and 1740 nM in the data set “cells”.

For the compound `Nc1ncc(-c2ncccc2F)nc1C(=O)Nc1ncccc1N1CCC(N)CC1`, the concentration for a half-maximal effect (EC50) in data set [2] stood at 41 nM.

Consider `Nc1ncc(-c2nc(N3CCC3)ccc2C(F)(F)F)nc1C(=O)Nc1ncccc1N1CCC(N)CC1`, for which the concentration for half-maximal inhibition (IC50) in data set [3] worked out at 2900 nM; in data set [4], 140 nM.

For the compound `CO[C@H]1CN(c2ccncc2NC(=O)c2nc(-c3ncccc3OC(F)(F)F)cnc2N)CC[C@@H]1N`, the half-maximal inhibitory concentration (IC50) in [5] turned out to be 2 nM; in “cells” it was 140 nM; in data set [6] it was 0.2 nM.

Regarding `Nc1ncc(-c2ncnc3sccc23)nc1C(=O)Nc1ncccc1N1CCC(N)CC1`, the 50% inhibitory concentration (IC50) was 710 nM in data set [3] and 4100 nM in data set [4].

In [1], `Nc1ncc(-c2ncccc2C(F)(F)F)nc1C(=O)Nc1ncccc1N1C[C@H]2CC[C@@H](C1)[C@@H]2N` registered a pKa of 9.4. The half-inhibitory concentration (IC50) in data set [5] turned out to be 3 nM; in [6], 10 nM. Further, the half-maximal effective concentration (EC50) in data set [2] is > 30000 nM; in the data set “cells” it was 1390 nM.

In turn, `Nc1ncc(-c2ncccc2OC(F)(F)F)nc1C(=O)Nc1ncccc1N1CCC(N)CC1` displayed a pKa in data set [1] of 8.9. Besides, the results for the EC50 (in data set [2]; in the data set “cells”) were 200 nM and 180 nM, respectively. In [4], this compound registered an IC50 of 8460 nM.

Regarding `CN1CCN(c2nc(C3=C(c4c[nH]c5ccccc45)C(=O)NC3=O)c3ccccc3n2)CC1` [SOTRASTAURIN], the IC50 was 0.3 nM in data set [5]; 5.4 nM in data set [7]; 250 nM in “cells”; 2.1 nM in [8]; > 10000 nM in the data set on SK-MEL-28; 6 nM in data set [10]. Moreover, the values for the IC50 in data set [11] and in data set [12] were 5.9 nM and 64 nM, respectively. For the same compound, the result in the data set with 92-1 [9] was Active.

On to `Nc1ncc(-c2ncccc2OC(F)(F)F)nc1C(=O)Nc1ccncc1N1CCC(N)CC1`, for which the half-inhibitory concentration (IC50) was 530 nM in [3], 1.3 nM in data set [5], 0.4 nM in [6] and 30 nM in [4]. This compound came in with a 50% effective concentration (EC50) in “cells” of 230 nM.

With `Nc1ncc(-c2cccc3[nH]ncc23)nc1C(=O)Nc1ncccc1N1CCC(N)CC1`, the IC50 in data set [3] amounted to 41 nM; in data set [4], 31 nM.

With `Nc1ncc(-c2ncccc2OC(F)(F)F)nc1C(=O)Nc1cnccc1N1CCC(N)CC1`, the IC50 in data set [3] came to 10 nM; in [4] it was 230 nM. In addition, the Activity result in [13], in data set [14] and in data set [15] was “Toxic” in each case. The same compound displayed a half-maximal effective concentration (EC50) in the data set “cells” of 36 nM. For the same compound, the outcome with 92-1 [16] was Active.

In data set [1], `Nc1ncc(-c2ncccc2OC(F)(F)F)nc1C(=O)Nc1ncccc1N1CCC(N)C(F)C1` (stereo not drawn) returned a pKa of 7.6. Besides, the half-maximal effective concentration (EC50) in data set [2] stood at 43 nM; in the data set “cells”, 153 nM.

Turning to `Nc1ncc(-c2ncccc2C(F)(F)F)nc1C(=O)Nc1cccnc1N1CCC(N)CC1`, the concentration for half-maximal inhibition (IC50) in [3] came to 6900 nM; in [5] it was 69 nM; in data set [6] it was 43 nM; in data set [4] it was 3000 nM. This compound also had an EC50 in the data set “cells” of 3660 nM.

In data set [2], `Nc1ncc(-c2ncccc2C(F)(F)F)nc1C(=O)Nc1ncccc1N1CCC(N)CC1` yielded a 50% effective concentration (EC50) of 160 nM. For the same compound, inhibition in data set [4] was half-maximal at 8700 nM (IC50).

In the case of `CNc1ncc(-c2ncccc2OC(F)(F)F)nc1C(=O)Nc1cnccc1N1CCC(N)CC1`, the Activity entry in [13], in data set [14] and in [15] was “Non-Toxic” each time. The midpoint of inhibition in the data set “cells”, the IC50, lay at 3700 nM.

In data set [2], `Nc1ncc(-c2nc(N3CCOCC3)ccc2C(F)(F)F)nc1C(=O)Nc1ncccc1N1CCC(N)CC1` came in with an EC50 of 150 nM. Also, the IC50 in [4] was determined as 230 nM.

The values above are taken from ChEMBL document CHEMBL5537172 (J Med Chem, 2024).
